The values below come from patent US20120283325A1, “EXCIPIENT COMPATIBILITY WITH EZATIOSTAT” (Telik, Inc., priority 2011, published 2012).

Series [1] in a line: Degradation products by HPLC of binary mixtures and formulations of ezatiostat hydrochloride over time. It counts as physicochemical. The note with it: 40° C. and 75% RH. As to the method: (§1) Further, ezatiostat hydrochloride was mixed with each of the excipients mentioned in Table 3. The quantity of excipient used was determined by the desired properties of the resulting formulation. These blends were prepared in scintillation vials which were screw Teflon capped and stored at 40° C. and 75% RH.
The degradation products were evaluated for each sample using HPLC at initial, 4 weeks, and 8 weeks period. For the initial and 4 week samples, the HPLC autosampler temperature was set at ambient but it was set at 5° C. for samples tested at 8 weeks. The autosampler temperature was lowered due to an observation that individual impurities were increasing during the HPLC run.
The inconsistent results obtained at four weeks were attributed to higher temperature used during HPLC. For this reason, the data at four weeks is not probative for the underlying study.

Series [2] in a line: Potency results of ezatiostat hydrochloride in binary mixtures, formulations and alone stored at 40° C. and 75% RH. Format: physicochemical. The note with it: for Potency: 40° C. and 75% RH. The procedure:
as §1
The potency results of ezatiostat hydrochloride in the binary mixtures of Table 3, Formulations 1 and 2 of Table 2, and ezatiostat hydrochloride alone stored at 40° C. and 75% RH are shown in Table 4.

[3] abbreviates: 4 weeks, autosampler ambient (data called not probative).

As for `CCOC(=O)[C@@H](N)CCC(=O)N[C@@H](CSCc1ccccc1)C(=O)N[C@@H](C(=O)OCC)c1ccccc1.Cl` [Ezatiostat•HCl, ethyl (2S)-2-amino-5-[[(2R)-3-benzylsulfanyl-1-[[(JR)-2-ethoxy-2-oxo-1-phenylethyl]amino]-1-oxopropan-2-yl]amino]-5-oxopentanoate], the “RS(% Area) RRT 0.74” value is 0.13% Area in series [1] (0 weeks, autosampler ambient); 0.28% Area in series [1] (setting [3]); 0.07% Area in series [1] (8 weeks, autosampler 5° C.). Besides, the “RS(% Area) RRT 0.88” value stood at 0.09% Area in series [1] (0 weeks, autosampler ambient); 0.27% Area in series [1] (setting [3]); 0.51% Area in series [1] (8 weeks, autosampler 5° C.); 0.51 % Area in series [1] (8 weeks, autosampler 5° C., listed as ezatiostat hydrochloride). Besides, the “RS(% Area) Total” value in series [1] (0 weeks, autosampler ambient) was 0.22% Area; in series [1] (setting [3]) it was 0.55% Area; in series [1] (8 weeks, autosampler 5° C.), 0.58% Area. The Potency in series [2] (T = 0 weeks) was 102.1%; in series [2] (T = 4 weeks), 102.0%; in series [2] (T = 8 weeks), 100.4%. Moreover, in series [2] (eight weeks at 40° C. and 75% RH), the Excipient compatibility entry is “compatible with all the excipients investigated above”. The “Potency change over eight weeks” value in series [2] (storage at 40° C. and 75% RH) is listed as “little change”.
